The test concerns P. falciparum 3D7 growth, pLDH absorbance. Kind of test: P. falciparum 3D7 growth inhibition, dose response, strain 3D7 (AID 2305).

Molecules are shown by their SMILES. “And” between values parts separate entries of the source, which are not always exact repeats. Equal entries are not always repeated.

Usually IC50 stands for the concentration that gives 50% inhibition. The low end stands for higher potency, the high end for lower potency.

`O=c1[nH]c(=O)n2c(nc3ccccc32)[nH]1` gave a half-inhibitory concentration (IC50) of 0.17 µM.
The figure for `O=C(NCc1ccc(F)cc1)Nc1cccc(-c2ccc(-c3nc4ccc(F)cc4[nH]3)cc2)c1` is 0.23 µM; for `O=C(c1ccc(-c2ccc(-c3nc4ccc(C(F)(F)F)cc4[nH]3)s2)cc1)N1CCCCC1CN1CCC(O)C1` (stereo unspecified) it is 0.56 µM.
The figure for `Cc1cccc(NC(=O)c2cnc(N3CCN(c4ccncc4)CC3)c(Cl)c2)c1` is 0.68 µM; for `Cc1ccc(O)cc1Nc1ccnc2cc(-c3ccc(CN4CCCCC4)o3)ccc12` it is 0.17 µM; for `Cc1ccc(NC(=O)c2ccc3ncccc3c2)cc1OC1CCN(C(C)C)C1` (stereo unspecified) it is 0.99 µM.
`COc1ccc(-c2ccc(NC(=O)c3ccc(C#N)cc3)cc2)cc1CN(C)CCO` came in with a concentration for half-maximal inhibition (IC50) of 0.63 µM.
The figure for `O=C(Nc1ccon1)c1cc(-c2cccnc2)nc2ccc(Cl)cc12` is 0.79 µM; for `Cc1[nH]c(C)c(-c2cc3ccccc3o2)c(=O)c1Cl` it is 1.72 µM.
In turn, `C[C@H](Cc1ccc(OCCCCCCCOc2ccc(C[C@@H](C)NC[C@H](O)c3cccc(Cl)c3)cc2)cc1)NC[C@H](O)c1cccc(Cl)c1` came in with an IC50 of 0.19 µM.
With `Cc1noc(C)c1-c1ccc2c(Nc3ccc([N+](=O)[O-])cc3)c(C(N)=O)cnc2c1`, the concentration for half-maximal inhibition (IC50) amounted to 0.69 µM.
Next, `COc1ccc(-c2nc(NC(=O)Cc3coc4cc(OC)ccc34)sc2C)cc1`: 0.61 µM.
The figure for `CC(C)CCn1c(Sc2ccc(C#N)c([N+](=O)[O-])c2)nnc1-c1ccc(N(C)C)cc1` is 0.79 µM; for `COc1cc2nc(N3CCC(CNC(=O)c4ccc(-c5ccc(C(=O)N(C)C)cc5OCCO)cc4)CC3)nc(N)c2cc1OC` it is 0.64 µM.
Next, `COCCN(CCOC)c1ncc(-c2ccsc2)c(-c2nc(C)c(C)s2)n1`: 0.84 µM; `Cc1ccc(-c2ccc3c(c2)C=C(C(=O)NC2CCN(CCNC(=O)c4cccs4)CC2)CCC3)cc1`: 0.23 µM; `CC(C)N1CCC(N(Cc2ccc(-c3ccc(Cl)cc3)cc2)C(=O)Cn2c(CCc3cccc(F)c3F)nc(=O)c3ccccc32)CC1`: 0.94 µM.
`O=C(Nc1cccc(-c2ccc(-c3nc4ccccc4[nH]3)cc2)c1)Nc1ccc(F)c(F)c1F`: the half-maximal inhibitory concentration (IC50) was 0.24 µM.
Next, `CCCCN1CCN(c2cc(NS(=O)(=O)c3cccc(C(=O)Nc4ccc(C(F)(F)F)cc4)c3)ccc2OC)CC1`: 0.69 µM; `CCCCc1nc2nc(N)nc(N)c2cc1CCC`: 0.31 µM; `N#Cc1cccc(NC(=O)Nc2ccc(-c3ccc(-c4nc5ccc(C(F)(F)F)cc5[nH]4)cc3)cc2)c1`: 0.14 µM.
Next, `Cc1cc(N(C)C)nc(Nc2ccc(NC(=O)c3cccc(F)c3)cc2)n1`: 1 µM; `O=C(NC1CCCCC1)N(Cc1cccc(-c2ccc(CNCc3ccc4c(c3)OCO4)cc2)c1)C1CCN(Cc2ccccc2)CC1`: 0.79 µM.
In the case of `O=C(/C=C/c1ccc(Cl)c(Cl)c1)NCCCCCN1CCC(CCNC(=O)/C=C/c2ccccc2F)CC1`, the IC50 stood at 0.87 µM.
The figure for `CCCCn1c(SC(C)C)nc2c(c1=O)C1(CCCCC1)Cc1ccccc1-2` is 0.67 µM.
The figure for `COc1ccc(CNCc2ccsc2)cc1-c1ccc(S(=O)(=O)NCCN2CCCC2)s1` is 0.77 µM.
With `CCCCCCCCOc1ccc(N2C(N)=NC(N)=NC2(C)C)cc1`, the IC50 was 0.5 µM.
Compound `COc1ccc(-c2ccc(NC(=O)c3ccc(Cl)cc3)cc2)cc1CN(C)CCN(C)C` showed an IC50 of 0.67 µM.
On to `N#Cc1ccc(N(CCOC(=O)c2ccccc2)Cc2ccccc2C(F)(F)F)cc1C(F)(F)F`, for which the concentration for half-maximal inhibition (IC50) is 0.92 µM.
`Cc1cc(NCCCCCCNc2cc(C)nc3c(C)cccc23)c2cccc(C)c2n1`: the IC50 was 0.41 µM.
As to `CCc1cn2c3c(cc(C(=O)N[C@@H](Cc4ccccc4)[C@H](O)CNCc4cccc(C)c4)cc13)N(C)S(=O)(=O)CC2`, the IC50 came to 0.25 µM.
Next, `CCN(CC)CCNc1nccc(N(C)c2ccc(NC(=O)Nc3cc(C(F)(F)F)ccc3F)cc2)n1`: 0.55 µM; `CCN1CCC(N(Cc2ccc(-c3ccc(C(F)(F)F)cc3)cc2)C(=O)Cn2c(CCc3cccc(F)c3F)cc(=O)c3cn(C)nc32)CC1`: 0.24 µM; `CN(C)CCCOC(=O)c1cc2cc(-c3ccccc3)ccc2n1S(=O)(=O)Cc1ccccc1`: 0.36 µM.
In turn, `Cc1cc2c(cc1C(F)(F)F)N(C(=O)Nc1cccc(C(=O)NC3CCN(Cc4ccccc4)CC3)c1)CC2` came in with a 50% inhibitory concentration (IC50) of 0.91 µM.
The figure for `Cc1cnc(Nc2ccccc2)nc1N[C@@H](CCCN)C(=O)Nc1ccccc1` is 0.81 µM.
`Cc1ccc(-c2nc3cc(NC(=O)c4ccc([N+](=O)[O-])o4)ccc3o2)cc1Cl` registered a half-maximal inhibitory concentration (IC50) of 0.16 µM.
Next, `Fc1ccc2nc(-c3ccc(-c4ccc(CNCC5CCCO5)cc4)s3)[nH]c2c1` (stereo unspecified): 0.6 µM; `COc1cccc(CN2CCCN(Cc3cccc(NC(=O)c4cc5ccccc5s4)c3)CC2)c1`: 1.01 µM; `COc1cccc2c(NN=Cc3cccc(Cl)c3)ccnc12`: 0.84 µM.
`COC(=O)c1cccc(CNCc2cccc(-c3ccc(-c4nc5ccc(C(F)(F)F)cc5[nH]4)cc3)c2)c1` showed an IC50 of 0.26 µM.
In turn, `COc1ccc2nccc(N3CCC(CCNCc4ccc5c(n4)NC(=O)CO5)CC3)c2c1` yielded an IC50 of 0.7 µM.
The figure for `O=C(/C=C/c1ccc(Cl)c(Cl)c1)N1CCCC(CCCN2CCC(c3c[nH]c4ccccc34)CC2)C1` (stereo unspecified) is 1.09 µM.
Next, `O=C(Nc1ccccc1OC(F)(F)F)NC1CCC(CN2CCC(c3c[nH]c4ccccc34)CC2)CC1` (stereo unspecified): 0.37 µM and 0.8 µM; `Oc1ccc(CCNCCCCCCNCCc2ccc(Cl)c3ccccc23)cc1O`: 0.72 µM.
Next, `COc1ccc(-c2cccc(NC(=O)c3cccc(C#N)c3)c2)cc1CN1CCNCC1`: 0.73 µM; `CC1(CCc2ccccc2)N=C(N)N(Cc2ccccc2)C(=O)C1c1ccc(Cl)c(Cl)c1` (stereo unspecified): 0.81 µM; `O=C(Nc1cccc(-c2cccc(-c3nc4ccccc4[nH]3)c2)c1)Nc1ccc2c(c1)OCO2`: 0.17 µM.
Take `CN1CCC(N2CCN(c3ccc4c(=O)nc(CCc5cccc(F)c5F)n(CC(=O)N(C)Cc5ccc(-c6ccc(C(F)(F)F)cc6)cc5)c4n3)CC2)CC1`: the half-inhibitory concentration (IC50) is 0.72 µM.
The figure for `CC(C)c1ccc2c(c1)C(=O)c1ccc(C(=O)O)cc1S2(=O)=O` is 0.47 µM.
For the compound `COc1ccc(NC(=O)CCNc2cc(C)nc(NCCOc3ccccc3)n2)cc1`, the IC50 was determined as 0.75 µM.
The figure for `CCNc1cc(C(=O)N[C@@H](Cc2ccccc2)[C@H](O)CNC(C)(C)CC(C)(C)C)c(F)c(N2CCCCS2(=O)=O)c1` is 1.01 µM.
Compound `CN(C)c1ccc(CN2CCC(NC(=O)c3ccc(-c4ccccc4Cl)s3)CC2)cc1` had a half-maximal inhibitory concentration (IC50) of 0.9 µM.
Next, `CCCCC1(NC(=O)[C@@H](Nc2ccc(C#N)c3ccccc23)C2CCCCC2)CCCCC1`: 1.12 µM; `COc1cc(OC)cc(C(=O)Nc2cccc(-c3cn4ccc(C)cc4n3)c2)c1`: 0.99 µM.
Regarding `O=C1CCCC1Sc1nc2ccccc2c(=O)n1-c1ccc(Cl)c(Cl)c1` (stereo unspecified), the half-maximal inhibitory concentration (IC50) is 0.73 µM.
For the compound `Cc1ccc(/C=C/C(=O)NC2CCC(CN3CCC(c4c[nH]c5ccccc45)CC3)CC2)cc1C` (stereo unspecified), the IC50 was 0.82 µM and 0.83 µM.
Take `CC(Cc1ccc(OCCOc2ccccc2)cc1)NCC(O)c1cccc(C(F)(F)F)c1` (stereo unspecified): the IC50 stood at 0.97 µM.
Regarding `O=c1cc(NCCCNCc2cc3c(Cl)cccc3s2)[nH]c2ccccc12`, the half-inhibitory concentration (IC50) came to 0.47 µM.
Next, `CCCCCCCc1c(C)[nH]c2ccc(F)cc2c1=O`: 0.29 µM; `CCCC(C)NC(=O)[C@H](Cc1ccccc1)NC(=O)c1ccc(O)c(-c2ccc(OC)cc2)c1` (stereo partly specified): 1.24 µM; `O=C(Nc1cccc(-c2cc3ccccc3[nH]2)c1)C1CCN(Cc2ccccc2O)CC1`: 0.94 µM.
The figure for `CCCc1c(C(=O)NC2CCC(CN3CCC(c4c[nH]c5ccccc45)CC3)CC2)cnn1-c1ccc(Cl)cc1` (stereo unspecified) is 0.76 µM.
On to `O=c1cc(NCCCNC(c2ccccc2)c2ccc(Cl)c(Cl)c2)[nH]c2ccccc12` (stereo unspecified), for which the IC50 was 1.14 µM.
The compound `O=C1CCCN1CCCNCc1cccc(-c2ccc(-c3nc4ccccc4[nH]3)s2)c1` had a 50% inhibitory concentration (IC50) of 0.86 µM.
Take `O=C(Nc1ccc(SC(F)(F)F)cc1)Nc1ccc(Cl)c(Cl)c1`: the 50% inhibitory concentration (IC50) stood at 0.91 µM.
`c1ccc(Oc2ccc(Nc3nc(NCCc4cnc[nH]4)nc(NC4CCCC4)n3)cc2)cc1` returned an IC50 of 1.03 µM.
Next, `c1cnc2ccc(NCc3ccc(-c4ccc(CNC5CCCC5)cc4)cc3)cc2c1`: 0.87 µM.
For `CCCc1cc(Cc2cnc(N)nc2N)cc2c1OC(C)C2C` (stereo unspecified), the half-inhibitory concentration (IC50) came to 0.67 µM.
As to `O=C(Nc1cccc(CN2CCCN(Cc3ccsc3)CC2)c1)c1ccc(Cl)c(Cl)c1`, the IC50 worked out at 0.88 µM.
With `O=C(CNC(=O)c1ccc(O)cc1)Nc1ccc(-c2cccc(-c3nc4ccc(C(F)(F)F)cc4[nH]3)c2)cc1`, the IC50 was 0.86 µM.
The figure for `CC(Cc1ccc(SC(C)C)cc1)NCC(O)c1cccc(Cl)c1` (stereo unspecified) is 0.83 µM; for `CCCCOc1c(CNCCCCCCNCc2ccc3ccccc3c2OCCCC)ccc2ccccc12` it is 0.87 µM; for `O=C(Nc1ccc2c(c1)CCN2C1CCN(Cc2ccc(O)cc2)C1)c1ccco1` (stereo unspecified) it is 0.9 µM.
Next, `CSc1ccc(NC(=O)Nc2cc(C)nc3ccccc23)cc1`: 0.71 µM; `CCCCCCN1CCCN(Cc2ccc(C(=O)Nc3ccc(C)c(F)c3)cc2)CC1`: 0.33 µM.
In turn, `Clc1ccc2c(NCCc3ccccc3)ccnc2c1` displayed an IC50 of 0.49 µM.
The compound `O=C(NCC1Cc2cc(Oc3ccccc3)ccc2O1)c1ccc([N+](=O)[O-])o1` (stereo unspecified) yielded an IC50 of 0.92 µM.
As to `CCCCCOc1ccc(CC(C)NCC(O)c2cccc(Cl)c2)cc1` (stereo unspecified), the IC50 is 0.65 µM.
The figure for `Cc1cc(N[C@@H](Cc2ccccc2)C(=O)Nc2ccccc2)nc(NCC2CCCCC2)n1` is 0.76 µM; for `O=C(CSc1nc(-c2ccccc2Cl)ns1)Nc1cccc(F)c1` it is 1.11 µM.
Next, `CS(=O)(=O)Cc1ccc(Nc2nccc(-c3c(-c4cccc(C(=O)Nc5c(F)cccc5F)c4)nn4ccccc34)n2)cc1`: 0.53 µM; `Oc1ccc2nc(Nc3ccccc3)nc(NCCc3ccccc3)c2c1`: 0.15 µM; `O=C(/C=C/c1ccc(Cl)c(Cl)c1)NC1CCC(CN2CCC(c3coc4ccccc34)CC2)CC1` (stereo unspecified): 0.83 µM.
`CN(C)CCOc1cccc(-c2cnc(N)c(-c3nc4ccc(S(C)(=O)=O)cc4[nH]3)c2)c1` showed an IC50 of 0.95 µM.
As to `Fc1ccc(CNc2ccc3ncc(-c4cccnc4)n3n2)cc1`, the IC50 came out at 0.93 µM.

(Values after PubChem BioAssay AID2305 (GlaxoSmithKline (GSK), 2010).)
